System: tau
Test: Tau phosphorylation in Ab42-treated organotypic frontocortical slice cultures
Format: cell-based
Conditions: Ab42-treated rat organotypic frontocortical slice cultures
Method: Rat brain slice organotypic culture methods were modified from those published previously. [Adamchik et al., Brain Res Brain Res Protoc 5:153-158 (2000).] FCX slices ([…]) were transferred to sterile, porous Millicell-CM inserts (0.4 mm). Each culture insert unit contained two brain slices and was placed into individual wells of a 12-well culture tray in 2 ml medium: 50% MEM with Earl's salts, 2 mM L-glutamine, 25% Earl's balanced salt solution, 6.5 g/l D-glucose, 20% fetal bovine serum (FBS), 5% horse serum, 25 mM HEPES buffer, pH 7.2, and […] streptomycin and […] penicillin. Cultures were kept in an incubator for 2 days at 36° C. in 5% CO2 to minimize the impact of injury from slice preparation.
On the day of experiment, medium was removed, the brain slices rinsed and incubated in 0.1% FBS-containing medium for 4 hours at 36° C. in 5% CO2. Brain slices were then cultured with 100 nM Ab42 and/or 0.1, 1 nM compound C0105 or compound C0114 in fresh 0.1% FBS-containing medium for 16 hours. […]
The levels of phosphorylated tau (pSer202tau, pThr231tau and pThr181tau) as well as total tau precipitated (loading controls) are assessed by Western blotting using specific antibodies directed against each of the phosphor-epitopes and the anti-tau, respectively.

SMILES: CN1CCC2(CC1)NCC(=O)N2Cc1ccccc1 [Compound C0105M]
- Phosphorylation of tau at all three phosphorylation sites: dramatically reduces phosphorylation of tau
